Experimental data published in patent publication US20050026959A1, “Ethanol solvate of (-)-cis-2-(2-chloropheny)-5,7-dihydroxy-8-[4R-(3S-hydroxy-1-methyl)piperidinyl]-4H-1benzopyran-4-one” (Aventis Pharma Deutschland GmbH, priority 2000, published 2005).

Legend:
[1] = Hygroscopicity of the solid form; type: physicochemical
Source text: Form II is hygroscopic. It can be used in water free form or in a form with a certain water content. The use in a form, which is essentially free from water is preferred.

[2] = system: cyclin dependent kinases (CDKs) including CDK1, CDK2, CDK4, CDK6 and CDK7; conditions: cdk1/cyclin B; cdk2/cyclin A; cdk2/cyclin E; cdk4/cyclinD; cdk6/cyclin D; cdk7/cyclin H; Int. J. Oncology 9: 1143-1168 (1996); cited from earlier work

Row | hygroscopicity [1] | SMILES | inhibition of cyclin dependent kinases [2]
1 | hygroscopic | CN1CC[C@H](c2c(O)cc(O)c3c(=O)cc(-c4ccccc4Cl)oc23)[C@H](O)C1.Cl (relative stereo) [Form II, (−)-cis-2-(2-chlorophenyl)-5,7-dihydroxy-8-[4R-(3S-hydroxy-1-methyl)piperidinyl]-4H-1-benzopyran-4-one hydrochloride] | 
2 |  | CN1CC[C@H](c2c(O)cc(O)c3c(=O)cc(-c4ccccc4Cl)oc23)[C@H](O)C1 [Flavopiridol, (−)-cis-2-(2-chlorophenyl)-5,7-dihydroxy-8-[4R-(3S-hydroxyl-1-methyl)piperidinyl]-4H-1-benzopyran-4-one] | strong inhibitor
